Reference: the NIST ThermoML archive (doi:10.1016/j.jct.2012.01.019)
Numbers after ± are expanded uncertainties.

Assay: activity coefficient (dimensionless); of the first substance listed, at infinite dilution; xn = mol fraction of the nth substance listed
Conditions: 101 kPa, Liquid, Chromatography, x1 = 0

| Compound | activity coefficient (318.15 K) | activity coefficient (328.15 K) | activity coefficient (338.15 K) | activity coefficient (348.15 K) | activity coefficient (358.15 K) | activity coefficient (368.15 K) |
| --- | --- | --- | --- | --- | --- | --- |
| CCCCCCCCCC [decane] + COCC[N+]1(C)CCCCC1.O=S(=O)([N-]S(=O)(=O)C(F)(F)F)C(F)(F)F | 73.9 ± 3.5 | 66.5 ± 3.1 | 59.5 ± 2.8 | 53.7 ± 2.5 | 48.8 ± 2.3 | 45 ± 2.1 |
| CCOCC [diethyl ether] + COCC[N+]1(C)CCCCC1.O=S(=O)([N-]S(=O)(=O)C(F)(F)F)C(F)(F)F | 2.6 ± 0.18 | 2.59 ± 0.18 | 2.58 ± 0.18 | 2.58 ± 0.18 | 2.57 ± 0.17 | 2.56 ± 0.17 |
| CC(C)OC(C)C [diisopropyl ether] + COCC[N+]1(C)CCCCC1.O=S(=O)([N-]S(=O)(=O)C(F)(F)F)C(F)(F)F | 6.13 ± 0.42 | 6.03 ± 0.41 | 5.94 ± 0.4 | 5.84 ± 0.4 | 5.76 ± 0.39 | 5.69 ± 0.39 |
| CCCOCCC [dipropyl ether] + COCC[N+]1(C)CCCCC1.O=S(=O)([N-]S(=O)(=O)C(F)(F)F)C(F)(F)F | 6.45 ± 0.44 | 6.28 ± 0.43 | 6.13 ± 0.42 | 5.98 ± 0.41 | 5.86 ± 0.4 | 5.75 ± 0.39 |
| CCO [ethanol] + COCC[N+]1(C)CCCCC1.O=S(=O)([N-]S(=O)(=O)C(F)(F)F)C(F)(F)F | 1.73 ± 0.12 | 1.58 ± 0.1 | 1.45 ± 0.1 | 1.33 ± 0.09 | 1.24 ± 0.08 | 1.16 ± 0.07 |
| CCOC(C)=O [ethyl acetate] + COCC[N+]1(C)CCCCC1.O=S(=O)([N-]S(=O)(=O)C(F)(F)F)C(F)(F)F | 0.916 ± 0.058 | 0.932 ± 0.059 | 0.948 ± 0.06 | 0.963 ± 0.061 | 0.975 ± 0.061 | 0.989 ± 0.062 |
| CCc1ccccc1 [ethylbenzene] + COCC[N+]1(C)CCCCC1.O=S(=O)([N-]S(=O)(=O)C(F)(F)F)C(F)(F)F | 1.92 ± 0.13 | 1.93 ± 0.13 | 1.93 ± 0.13 | 1.94 ± 0.13 | 1.94 ± 0.13 | 1.95 ± 0.13 |
| CCCCCCC [heptane] + COCC[N+]1(C)CCCCC1.O=S(=O)([N-]S(=O)(=O)C(F)(F)F)C(F)(F)F | 24.5 ± 1.1 | 22.9 ± 1.1 | 21.2 ± 1 | 19.8 ± 0.9 | 18.4 ± 0.9 | 17.5 ± 0.8 |
| C=CCCCC [hex-1-ene] + COCC[N+]1(C)CCCCC1.O=S(=O)([N-]S(=O)(=O)C(F)(F)F)C(F)(F)F | 8.78 ± 0.6 | 8.38 ± 0.57 | 8.05 ± 0.55 | 7.69 ± 0.52 | 7.45 ± 0.51 | 7.22 ± 0.49 |
| CCCCCC [hexane] + COCC[N+]1(C)CCCCC1.O=S(=O)([N-]S(=O)(=O)C(F)(F)F)C(F)(F)F | 16.9 ± 0.8 | 16 ± 0.7 | 15.1 ± 0.7 | 14.2 ± 0.7 | 13.5 ± 0.6 | 13 ± 0.6 |
| CO [methanol] + COCC[N+]1(C)CCCCC1.O=S(=O)([N-]S(=O)(=O)C(F)(F)F)C(F)(F)F | 1.37 ± 0.09 | 1.26 ± 0.08 | 1.17 ± 0.07 | 1.08 ± 0.07 | 1 ± 0.06 | 0.942 ± 0.059 |
| CCCC(=O)OC [methyl butanoate] + COCC[N+]1(C)CCCCC1.O=S(=O)([N-]S(=O)(=O)C(F)(F)F)C(F)(F)F | 1.22 ± 0.08 | 1.23 ± 0.08 | 1.24 ± 0.08 | 1.25 ± 0.08 | 1.26 ± 0.08 | 1.27 ± 0.08 |
| COC(C)=O [methyl ethanoate] + COCC[N+]1(C)CCCCC1.O=S(=O)([N-]S(=O)(=O)C(F)(F)F)C(F)(F)F | 0.7 ± 0.047 | 0.714 ± 0.048 | 0.726 ± 0.048 | 0.74 ± 0.049 | 0.751 ± 0.049 | 0.763 ± 0.05 |
| CCC(=O)OC [methyl propanoate] + COCC[N+]1(C)CCCCC1.O=S(=O)([N-]S(=O)(=O)C(F)(F)F)C(F)(F)F | 0.888 ± 0.057 | 0.904 ± 0.057 | 0.92 ± 0.058 | 0.936 ± 0.059 | 0.95 ± 0.06 | 0.966 ± 0.061 |
